From ChEMBL document CHEMBL1138518 (J Med Chem, 2009)

Assays:
[1] = biological target: Heat shock protein HSP 90-beta (Homo sapiens, UniProt P08238); assay: Binding affinity to human recombinant HSP90
[2] = Dissociation constant, pKa of the compound; format: physicochemical
SK-BR-3 = assay: Cytotoxicity against human SKBR3 cells after 72 hrs by celltiter-glo assay; format: functional, cell-based; settings: Homo sapiens, SK-BR-3, 72 h
[3] = Chemical stability assessed as half life at pH 7.75; format: physicochemical; settings: buffer

Sequence of Heat shock protein HSP 90-beta (P08238 whole entry): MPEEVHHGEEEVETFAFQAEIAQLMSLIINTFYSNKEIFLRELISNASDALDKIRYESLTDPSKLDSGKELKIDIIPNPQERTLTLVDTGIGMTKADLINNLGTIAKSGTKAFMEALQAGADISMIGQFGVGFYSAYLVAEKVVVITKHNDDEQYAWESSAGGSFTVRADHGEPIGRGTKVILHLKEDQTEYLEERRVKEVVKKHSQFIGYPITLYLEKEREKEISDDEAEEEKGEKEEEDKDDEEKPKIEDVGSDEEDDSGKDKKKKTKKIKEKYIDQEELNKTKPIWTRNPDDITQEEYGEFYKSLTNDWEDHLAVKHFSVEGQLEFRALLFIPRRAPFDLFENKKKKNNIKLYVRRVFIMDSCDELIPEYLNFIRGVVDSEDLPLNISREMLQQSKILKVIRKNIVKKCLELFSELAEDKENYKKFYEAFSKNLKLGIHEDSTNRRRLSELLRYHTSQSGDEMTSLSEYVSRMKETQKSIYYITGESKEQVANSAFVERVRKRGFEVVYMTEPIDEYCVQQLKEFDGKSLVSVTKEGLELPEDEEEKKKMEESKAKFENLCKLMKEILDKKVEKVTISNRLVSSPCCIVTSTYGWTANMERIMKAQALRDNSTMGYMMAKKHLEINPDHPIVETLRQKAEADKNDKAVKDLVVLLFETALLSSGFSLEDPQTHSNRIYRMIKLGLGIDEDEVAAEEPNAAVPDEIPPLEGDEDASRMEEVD

| Kd [1] | pKa [2] | half-life [3] | SMILES | IC50 (SK-BR-3) |
| --- | --- | --- | --- | --- |
| > 25000 nM | 9.2 | – | CO[C@H]1/C=C\C=C(/C)C(=O)NC2=CC(=O)C(NCCN(C)C)=C(C[C@@H](C)C[C@H](OC)[C@H](N)[C@@H](C)/C=C(\C)[C@@H]1OC(N)=O)C2=O (stereo in doubt) | 415 nM |
| > 25000 nM | – | 200 h | COC1=C2C[C@@H](C)C[C@H](OC)[C@H](OC(=O)CCN)[C@@H](C)/C=C(\C)[C@H](OC(N)=O)[C@@H](OC)/C=C\C=C(/C)C(=O)NC(=CC1=O)C2=O (stereo in doubt) | 1700 nM |
| > 10000 nM | – | > 350 h | COC1=C2C[C@@H](C)C[C@H](OC)[C@H](OC(=O)CCCN)[C@@H](C)/C=C(\C)[C@H](OC(N)=O)[C@@H](OC)/C=C\C=C(/C)C(=O)NC(=CC1=O)C2=O (stereo in doubt) | > 1000 nM |
| 4000 nM | 5.7 | – | CO[C@H]1/C=C\C=C(/C)C(=O)NC2=CC(=O)C(NCCN(C)C)=C(C[C@@H](C)C[C@H](OC)[C@H](NCC(F)(F)F)[C@@H](C)/C=C(\C)[C@@H]1OC(N)=O)C2=O (stereo in doubt) | 270 nM |
| > 25000 nM | – | 130 h | C=CCNC1=C2C[C@@H](C)C[C@H](OC)[C@H](OC(=O)CCN)[C@@H](C)/C=C(\C)[C@H](OC(N)=O)[C@@H](OC)/C=C\C=C(/C)C(=O)NC(=CC1=O)C2=O (stereo in doubt) | 1800 nM |
| > 25000 nM | – | 74 h | CNCCNC1=C2C[C@@H](C)C[C@H](OC)[C@H](OC(=O)CN)[C@@H](C)/C=C(\C)[C@H](OC(N)=O)[C@@H](OC)/C=C\C=C(/C)C(=O)NC(=CC1=O)C2=O (stereo in doubt) | 340 nM |
| > 50000 nM | 6 | – | CO[C@H]1/C=C\C=C(/C)C(=O)NC2=CC(=O)C(NCCN(C)C)=C(C[C@@H](C)C[C@H](OC)[C@H](NCCN(C)C)[C@@H](C)/C=C(\C)[C@@H]1OC(N)=O)C2=O (stereo in doubt) | 460 nM |
| > 10000 nM | 8.9 | – | CO[C@H]1/C=C\C=C(/C)C(=O)NC2=CC(=O)C(NCCN(C)C)=C(C[C@@H](C)C[C@H](OC)[C@H](NCCC(F)(F)F)[C@@H](C)/C=C(\C)[C@@H]1OC(N)=O)C2=O (stereo in doubt) | 830 nM |

| SMILES | Kd [1] | pKa [2] | half-life [3] | IC50 (SK-BR-3) |
| --- | --- | --- | --- | --- |
| CO[C@H]1/C=C\C=C(/C)C(=O)NC2=CC(=O)C(NCCN(C)C)=C(C[C@@H](C)C[C@H](OC)[C@H](NCCF)[C@@H](C)/C=C(\C)[C@@H]1OC(N)=O)C2=O (stereo in doubt) | > 50000 nM | 9 | – | 390 nM |
| CO[C@H]1/C=C\C=C(/C)C(=O)NC2=CC(=O)C(NCCN(C)C)=C(C[C@@H](C)C[C@H](OC)[C@H](NCC(F)F)[C@@H](C)/C=C(\C)[C@@H]1OC(N)=O)C2=O (stereo in doubt) | 2900 nM | 7.5 | – | 370 nM |
